# From PubChem BioAssay AID2060907 (Molecular Pharmacology Branch, DTP, NCI, 2025)
# System: 388556-164-R-J1-PDC complex spheroid viability
# Test: Anticancer human tumor 388556-164-R-J1-PDC patient-derived colon adenocarcinoma cell line growth inhibition [RAS]
# Settings: for IC50: curve of first compound; for viability, T/C: stronger effect = lower value
# In short: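 Agents were tested in combination matrices in half-log decrements from a top concentration at or near clinical Cmax (10 microM if undetermined). Targets were multi-cell spheroids of tumour lines plus HUVEC and MSC stromal cells.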
# 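Further: spheroids exposed to compound for 7 days before readout.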
# 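Wherever viability, T/C is given: 100% = DMSO vehicle control luminescence.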
smiles,measurement,setting,value
NC1c2ccccc2OC12CCN(c1cnc3c(N4CCCc5ncccc54)n[nH]c3n1)CC2 (configuration not stated) + CCn1c(-c2cccnc2C(C)OC)c2c3cc(ccc31)N1CCOC(CC(NC(=O)C(C(C)C)N(C)C(=O)C3(F)CCN(C(=O)C#CC(C)(C)N(C)C)CC3)C(=O)N3CCCC(N3)C(=O)OCC(C)(C)C2)C1,IC50,second compound 0.000949 µM,192 nM
same,IC50,second compound 0.003 µM,220 nM
same,IC50,second compound 0.00949 µM,239 nM
same,IC50,second compound 0.03 µM,129 nM
same,IC50,second compound 0.0949 µM,180 nM
same,IC50,second compound 0.3 µM,100 nM
same,"viability, T/C","second compound 0.000949 µM, first compound 0.0316 µM",63.8%
same,"viability, T/C","second compound 0.000949 µM, first compound 0.1 µM",54.9%
same,"viability, T/C","second compound 0.000949 µM, first compound 0.316 µM",46%
same,"viability, T/C","second compound 0.000949 µM, first compound 1 µM",40.4%
same,"viability, T/C","second compound 0.000949 µM, first compound 3.16 µM",44%
same,"viability, T/C","second compound 0.000949 µM, first compound 10 µM",35.3%
same,"viability, T/C","second compound 0.003 µM, first compound 0.0316 µM",70.6%
same,"viability, T/C","second compound 0.003 µM, first compound 0.1 µM",56.3%
same,"viability, T/C","second compound 0.003 µM, first compound 0.316 µM",49.1%
same,"viability, T/C","second compound 0.003 µM, first compound 1 µM",37.1%
same,"viability, T/C","second compound 0.003 µM, first compound 3.16 µM",36.2%
same,"viability, T/C","second compound 0.003 µM, first compound 10 µM",33%
same,"viability, T/C","second compound 0.00949 µM, first compound 0.0316 µM",77.8%
same,"viability, T/C","second compound 0.00949 µM, first compound 0.1 µM",57.9%
same,"viability, T/C","second compound 0.00949 µM, first compound 0.316 µM",47.1%
same,"viability, T/C","second compound 0.00949 µM, first compound 1 µM",41.5%
same,"viability, T/C","second compound 0.00949 µM, first compound 3.16 µM",42%
same,"viability, T/C","second compound 0.00949 µM, first compound 10 µM",35.9%
same,"viability, T/C","second compound 0.03 µM, first compound 0.0316 µM",73.1%
same,"viability, T/C","second compound 0.03 µM, first compound 0.1 µM",50.4%
same,"viability, T/C","second compound 0.03 µM, first compound 0.316 µM",44.6%
same,"viability, T/C","second compound 0.03 µM, first compound 1 µM",38.5%
same,"viability, T/C","second compound 0.03 µM, first compound 3.16 µM",37.2%
same,"viability, T/C","second compound 0.03 µM, first compound 10 µM",35.4%
same,"viability, T/C","second compound 0.0949 µM, first compound 0.0316 µM",66.8%
same,"viability, T/C","second compound 0.0949 µM, first compound 0.1 µM",56.3%
same,"viability, T/C","second compound 0.0949 µM, first compound 0.316 µM",43.5%
same,"viability, T/C","second compound 0.0949 µM, first compound 1 µM",38.1%
same,"viability, T/C","second compound 0.0949 µM, first compound 3.16 µM",36.4%
same,"viability, T/C","second compound 0.0949 µM, first compound 10 µM",31.8%
same,"viability, T/C","second compound 0.3 µM, first compound 0.0316 µM",59.7%
same,"viability, T/C","second compound 0.3 µM, first compound 0.1 µM",49.6%
same,"viability, T/C","second compound 0.3 µM, first compound 0.316 µM",42.8%
same,"viability, T/C","second compound 0.3 µM, first compound 1 µM",35.1%
same,"viability, T/C","second compound 0.3 µM, first compound 3.16 µM",30.6%
same,"viability, T/C","second compound 0.3 µM, first compound 10 µM",27.6%
